Laboratory results reported in ChEMBL document CHEMBL4130486, “Design, synthesis and immunological evaluation of novel amphiphilic desmuramyl peptides” (Eur J Med Chem, 2017).
The source made the active and inactive calls. No cut-off for these calls is given here.

Key:
THP-1 [1] = test: Immunomodulatory activity in human THP1 cells assessed as increase in ICAM1 expression at 20 uM incubated for 21 hrs by immunostaining and flow cytometry; assay type: functional, cell-based
THP-1 [2] = test: Immunomodulatory activity in PMA-differentiated human THP1 cells assessed as increase in ICAM1 expression by measuring fluorescence intensity at 20 uM incubated for 21 hrs by immunostaining and flow cytometry (reference value: 602.95 No unit); assay type: functional
THP-1 [3] = test: (§1) Immunomodulatory activity in PMA-differentiated human THP1 cells assessed as increase in LPS-induced ICAM1 expression by measuring fluorescence intensity at 20 uM pre-incubated for 1 hr before LPS stimulation and further incubated for 20 hrs by immunostaining and flow cytometry relative to LPS alone; assay type: functional, cell-based
THP-1 [4] = test: Immunomodulatory activity in PMA-differentiated human THP1 cells assessed as increase in TNFalpha production by measuring TNFalpha level at 15 uM incubated for 24 hrs by ELISA; assay type: functional
THP-1 [5] = test: Immunomodulatory activity in PMA-differentiated human THP1 cells assessed as increase in TNFalpha production at 30 uM incubated for 24 hrs by ELISA; assay type: functional, cell-based
THP-1 [6] = test: Immunomodulatory activity in human THP1 cells assessed as increase in LPS-induced ICAM1 expression at 1 to 32 uM uM incubated for 21 hrs by immunostaining and flow cytometry; assay type: functional, cell-based
THP-1 [7] = test: Immunomodulatory activity in PMA-differentiated human THP1 cells assessed as increase in TNFalpha production at 1 to 30 uM incubated for 24 hrs by ELISA; assay type: functional, cell-based
THP-1 [8] = test: Immunomodulatory activity in human THP1 cells assessed as increase in LPS-induced ICAM1 expression at 16 uM uM incubated for 21 hrs by immunostaining and flow cytometry; assay type: functional
THP-1 [9] = test: Immunomodulatory activity in PMA-differentiated human THP1 cells assessed as increase in LPS-induced ICAM1 expression by measuring fluorescence intensity at 8 uM pre-incubated for 1 hr before LPS stimulation and further incubated for 20 hrs by immunostaining and flow cytometry relative to LPS alone; assay type: functional
THP-1 [10] = test: as §1, with “at <=4” for “at 20”; assay type: functional, cell-based
THP-1 [11] = test: as §1, with “at =>16” for “at 20”; assay type: functional, cell-based
THP-1 [12] = test: Toxicity in PMA-differentiated human THP1 cells assessed as cell death at 0.1 to 64 uM by trypan blue dye based assay; conditions: thp-1, 64 µM

For `CCCCOC(=O)[C@@H](CCC(N)=O)NC(=O)[C@H](C)NC(=O)[C@@H](C)O[C@H]1[C@H](O)[C@@H](CO)OC(O)[C@@H]1NC(C)=O` (some centres not stated) [MURABUTIDE], the Activity (THP-1 [1]) was “Active”, the Flu intensity (THP-1 [2]) was 1436.05 and the Activity (THP-1 [3]) was “Active”. For the same compound, the Activity (THP-1 [4]) was 2694 pg/mL and the Activity (THP-1 [5]) was “inactive”.

`CCCCCCNC(=O)CC[C@@H](NC(=O)[C@H](C)NC(=O)COc1cccc(NCCCO)c1)C(N)=O` was tested, and the Activity (THP-1 [1]) was “Active”, the Activity (THP-1 [6]) was “Active” and the Flu intensity (THP-1 [2]) was 885.76. The Activity (THP-1 [7]) was “Active”, the Activity (THP-1 [4]) was 3622 pg/mL and the Activity (THP-1 [5]) was “inactive”.

With `CCCCCCNC(=O)CC[C@@H](NC(=O)[C@H](C)NC(=O)COc1cccc(N(CCCO)CCCO)c1)C(N)=O` the Activity (THP-1 [1]) was “Active”, the Activity (THP-1 [8]) was “<=46%” and the Activity (THP-1 [6]) was “Active”. The Flu intensity (THP-1 [2]) was 777.29, the Activity (THP-1 [9]) was “<=33%” and the Activity (THP-1 [10]) was “Active”. For the same compound, the Activity (THP-1 [11]) was “inactive”, the Activity (THP-1 [7]) was “Active” and the Activity (THP-1 [4]) was 3606 pg/mL. The Activity (THP-1 [12]) was “Non-Toxic” and the Activity (THP-1 [5]) was “inactive”.
